Measurements published in patent publication US20250270206A1, “COMPOSITIONS AND METHODS FOR INHIBITION OF RAS” (TheRas, Inc., priority 2022, published 2025).

Key:
[1] = biological target: T1, Avi-KRAS G12C (1-169) GppNHp/RAF1 RBD-3×FLAG (52-151) (Homo sapiens, UniProt P01116, G12C); experiment: KRAS G12C-effector (RAF1 RBD) protein:protein interaction HTRF disruption assay; format: biochemical; settings: PPI HTRF
T1 construct: Avi-KRAS G12C (1-169) GppNHp
Description: A protein:protein interaction (PPI) Homogeneous Time Resolved Fluorescence (HTRF) assay was used to determine the effectiveness of compounds of the present disclosure in disrupting KRAS G12C protein and effector (RAF1) binding.
The HTRF assay used the following reagents and proteins: 50 nM Avi-KRAS G12C (1-169) GppNHp/RAF1 RBD-3×FLAG (52-151); 75 nM Avi-RAF1 RBD-3×FLAG; Assay Buffer: 50 mM Tris pH 7.5, 100 mM NaCl, 5 mM MgCl2, 0.1% BSA, 0.01% Tween 20, 10% DMSO; Bead Buffer: 50 mM Tris pH 7.5, 0.01% Tween 20; Assay volume: 20 μL (384 well plate-low volume format); and Compound titration: 30-0.02 μM, 3× dilution series.
The HTRF assay employed the following protocol:
Compounds were dispensed in assay plate (384-well, Grenier Bione #784075) using Echo (model 555) with dose response settings: 200 nL final volume, titration from 100 μM as a 10-point dilution series. KRAS proteins were prepared in assay buffer, and dispensed on plates, 5 μL per well, then incubated for 1 h at room temperature, with 700 rpm shaking. RAF1 RBD were prepared in assay buffer, dispensed onto plates, 5 μL per well, and then incubated for 1 h at room temperature, with 700 rpm shaking. Reagent mix was then prepared and dispensed on plates, 10 μL per well, and then incubated for 1 h at room temperature, with 700 rpm shaking.
Plates were analyzed on an Envision plate reader using the following setting: Excitation 320 nm, Bandwidth 75 nm, Emission 615 nm, Bandwidth 85 nm; Gain 100%; Flashes 100; Lag 60 μs. Data was reported as percentage of activity, with DMSO as 100%. Data was plotted and analyzed using Prism 8.

[2] = biological target: T2, GTP-loaded KRAS4b (amino acids 1-169) G12C/C118S (Homo sapiens, UniProt P01116, C118S/G12C); experiment: MALDI-TOF MS covalent Cys12 modification, GTP-loaded KRAS G12C; format: binding; settings: 15 minutes reaction time, 1 μM protein, 1:2.5 protein to compound ratio
T2 construct: KRAS4b (amino acids 1-169) G12C/C118S protein; made in house
Description: (§1) MALDI-TOF MS analysis was performed using 1 μM protein target, and 1:2.5 protein to compound ratio was used.
(§2) Reaction: 1 μM of GppNHp, GTP, or GDP-loaded KRAS4b (amino acids 1-169) G12C/C118S protein (produced in-house by Protein Expression Laboratory, FNLCR/Leidos Biomed) in 20 mM 4-(2-hydroxyethyl)-1-piperazineethanesulfonic acid (HEPES) buffer containing 150 mM NaCl, 1 mM MgCl2, pH 7.3 was prepared freshly before assay. Ten-μL aliquots of protein were dispensed onto low volume 384-well plate, then 375 nL DMSO, and 25 nL of tested compounds from 5 mM DMSO stocks were added to appropriate wells using ECHO 555 acoustic liquid handler (Labcyte Inc.). For each reaction/assay, three blanks were prepared by mixing 10 μL of protein solution with 400 nL DMSO. The contents of the wells were carefully mixed by aspiration, and then each plate was sealed with an adhesive cover, centrifuged at 2000 g for 1 minute, and kept in the dark at room temperature until 5 min, 15 min, 30 min, 2 h, or 6 h collections.
(§3) Target pretreatment: Before each assay MALDI target (Bruker MPT 384 ground steel BC) was pre-treated by pipetting on each spot 0.75 μL of saturated sinapinic acid in acetonitrile (ACN).
(§4) Sample preparation: At collection time point, 2 μL of reaction mixtures were pipetted out into 20 μL MALDI matrix solution (saturated solution of sinapinic acid in 1:1 ACN:water solution containing 0.75% trifluoroacetic acid (TFA)) deposited on 384 well polypropylene plate. Resulting solution was mixed by aspiration, centrifuged at 2000 g for 1 minute, then 1 μL aliquots were dispensed on pre-treated MALDI target using Beckman Coulter Biomek FX^P 96/384-Span-8 Laboratory Automation Workstation. Finally, the MALDI target was dried under mild vacuum to produce spots with fine crystalline structure.
(§5) Measurements: MALDI-TOF measurements were performed on a Bruker Daltonics rapifleX Tissuetyper TOF-TOF mass spectrometer using linear mode and mass range from 18.6 to 21.6 kDa. Detector gain was set to 3.3× (483 V), sample rate to 5 GS/s, real time smoothing to medium (175 MHz), laser smart beam pattern was set to: “MS Thin Layer M5”, and the laser frequency was 10000 Hz. Spectra were automatically collected using custom AutoXecute method. Laser power was auto adjusted using fuzzy control. The peak selection range was set to be between 19000 and 21500 Da. Peak evaluation uses half width parameter set to be smaller than 40 Da for processed spectrograms (centroid peak detection: smoothed by SavitzkyGolay algorithm using 7 m/z width and 2 cycles; baseline was subtracted using median algorithm with flatness 1 and median level 0.01). Fuzzy control used Proteins/Oligonucleotides protocol with minimum half width 1/10 times above threshold. Up to 40000 satisfactory shots were collected in 10000 shot steps. Dynamic termination was implemented to finish data collection when peak signal/noise ratio reached a value of 50.
(§6) Spectra processing: Spectra were smoothed by SavitzkyGolay algorithm using 7 m/z width and three cycles. Centroid peak detection algorithm was used with signal to noise threshold set to 6, relative intensity threshold 4%, peak width 10 m/z and median baseline subtraction using flatness of 1 and median level of 0.01. Peak intensity and area under the peak were evaluated and recorded for all peaks between 19,300 Da and 21,550 Da.
(§7) Calculation of percent modification: Percent modification was calculated as a ratio of peak height for protein modified by compound to sum of peak height of remaining protein plus peak height for protein modified by compound. If multiple modifications were observed each was calculated as a ratio of peak height for given modification versus sum of peak heights for all observed protein species. Data reported in Table 5 are from the 15 minutes reaction time point.

[3] = biological target: T3, GDP-loaded KRAS4b (amino acids 1-169) G12C/C118S (Homo sapiens, UniProt P01116, C118S/G12C); experiment: MALDI-TOF MS covalent Cys12 modification, GDP-loaded KRAS G12C; format: binding; settings: 15 minutes reaction time, 1 μM protein, 1:2.5 protein to compound ratio
T3 construct: KRAS4b (amino acids 1-169) G12C/C118S protein; made in house
Description: as §1, §2, §3, §4, §5, §6, §7

[4] = biological target: T4, GppNHp-loaded KRAS4b (amino acids 1-169) G12C/C118S (Homo sapiens, UniProt P01116, C118S/G12C); experiment: MALDI-TOF MS covalent Cys12 modification, GppNHp-loaded KRAS G12C; format: binding; settings: 15 minutes reaction time, 1 μM protein, 1:2.5 protein to compound ratio
T4 construct: KRAS4b (amino acids 1-169) G12C/C118S protein; made in house
Description: as §1, §2, §3, §4, §5, §6, §7

pERK in NCI-H358 cells = experiment: Cell-based pERK HTRF assay; settings: Homo sapiens, 0.5 h, 30 min incubation
Description: pERK HTRF assays (Perkin Elmer) were used to determine the effectiveness of compounds of the present disclosure in disrupting KRAS G12C protein/effector signaling in cells.
On Day 1, cells (NCI-H358) were seeded into 96-well plates at 4×10^4 cells/well in complete growth media (RPMI, 10% FBS).
On Day 2, cells were treated with compounds at 0.25% DMSO. The source plate was created with compounds diluted in media at 5-fold the final assay concentration. The compounds were run in a 9-point concentration curve starting at 75 μM, with a 3-fold dilution between concentrations. 20 μL was transferred onto the cell plates (final volume in wells was 100 μL). Plates were harvested after 30 min incubation by aspirating media and adding kit-supplied 1× supplemented lysis buffer to all wells (75 μL per well). Plates were then placed on a plate shaker and incubated at 850 rpm for an additional 30 min.
Antibody mixture solution was prepared by diluting aliquoted d2 and Eu Cryptate antibodies 1:20 in kit supplied detection buffer, then mixed the diluted antibodies solutions (1:1 v:v). 4 μL of this solution was then added to a 384-well detection plate (Perkin Elmer; 6008230).
Samples were homogenized by pipetting up and down and then transferred (16 μL of cell lysates) from the 96-well cell culture plate to two wells of the HTRF 384-well detection plate containing the antibody solution. Plates were centrifuged (524 g for 1 min) and allowed to incubate between 4 and 24 h at room temperature. Maximum signal is reached after 4 h incubation time and remains stable over a period of 24 hours. Therefore, readings can be made between 4 and 24 h of incubation. Plates were centrifuged again (524 g for 1 min) and analyzed on the EnVision plate reader using the following settings: Excitation 320 nm, Bandwidth 75 nm; Emission 615 nm, Bandwidth 85 nm; Gain 100%; Flashes 100; Lag 60 μs.

SMILES | IC50 [1] [nM] | GTP-KRAS G12C percent of modification [2] | GDP-KRAS G12C percent of modification [3] | GppNHp-KRAS G12C percent of modification [4] | IC50 (pERK in NCI-H358 cells) [nM]
C=CC(=O)N1CC[C@@H](N(CC)c2nc(OC[C@@]34CCCN3C[C@H](F)C4)nc3c(F)c(-c4ccc(F)c5sc(N)c(C#N)c45)ncc23)[C@@H]1C [Compound 50] | ≤ 500 | C (10%≤percent of modification <50%) | A (percent of modification ≥70%) | A (percent of modification ≥70%) | ≤ 100
C=CC(=O)N1CC[C@@H](N(C)c2nc(OC[C@@]34CCCN3C[C@H](F)C4)nc3c(Cl)c(-c4ccc(F)c5sc(N)c(C#N)c45)ncc23)[C@@H]1C [Compound 53] | ≤ 500 | B (50% percent of modification <70%) | A (percent of modification ≥70%) | A (percent of modification ≥70%) | ≤ 100
C=CC(=O)N1CC[C@@H](N(C)c2nc(OC[C@@]34CCCN3C[C@H](F)C4)nc3c(F)c(-c4c(F)cc(F)c5sc(N)nc45)ncc23)C1 [Compound 5] | ≤ 500 | A (percent of modification ≥70%) | A (percent of modification ≥70%) | A (percent of modification ≥70%) | ≤ 100
C=CC(=O)N1C[C@H](N(C)c2nc(OC[C@@]34CCCN3C[C@H](F)C4)nc3cc(-c4ccc(F)c5sc(N)c(C#N)c45)c(C(F)(F)F)nc23)C[C@H]1C [Compound 13] | ≤ 500 | C (10%≤percent of modification <50%) | C (10%≤percent of modification <50%) | C (10%≤percent of modification <50%) | ≤ 100
C=CC(=O)N1CC[C@@H](N(CC)c2nc(OC[C@@]34CCCN3C[C@H](F)C4)nc3c(F)c(-c4ccc(F)c5sc(N)c(C#N)c45)ncc23)[C@@H]1CC [Compound 48] | 500 to 5000 | D (percent of modification <10%) | A (percent of modification ≥70%) | D (percent of modification <10%) | 100 to 1000
C=CC(=O)N1CCC(N(C)c2nc(OC[C@@]34CCCN3C[C@H](F)C4)nc3c(F)c(-c4ccc(F)c5sc(N)c(C#N)c45)ncc23)[C@H]1CC (some centres unmarked) [Compound 39] | ≤ 500 | A (percent of modification ≥70%) | A (percent of modification ≥70%) | A (percent of modification ≥70%) | 100 to 1000
C=CC(=O)N1CC[C@@H](N(CC)c2nc(OC[C@@]34CCCN3C[C@H](F)C4)nc3c(Cl)c(-c4ccc(F)c5sc(N)c(C#N)c45)ncc23)[C@@H]1C [Compound 51] | ≤ 500 | C (10%≤percent of modification <50%) | A (percent of modification ≥70%) | A (percent of modification ≥70%) | ≤ 100
C=CC(=O)N1CC[C@@H](N(C)c2nc(OC[C@@]34CCCN3C[C@H](F)C4)nc3cc(-c4ccc(F)c5sc(N)c(C#N)c45)c(C(F)(F)F)nc23)C1 [Compound 8] | ≤ 500 | C (10%≤percent of modification <50%) | C (10%≤percent of modification <50%) | C (10%≤percent of modification <50%) | ≤ 100
C=CC(=O)N1CC[C@@H](N(CC)c2nc(OC[C@@]34CCCN3C[C@H](F)C4)nc3c(Cl)c(-c4ccc(F)c5sc(N)c(C#N)c45)ncc23)[C@H]1CC [Compound 43] | ≤ 500 | A (percent of modification ≥70%) | A (percent of modification ≥70%) | A (percent of modification ≥70%) | 100 to 1000
C=CC(=O)N1CCC(N(C)c2nc(OC[C@@]34CCCN3C[C@H](F)C4)nc3c(Cl)c(-c4ccc(F)c5sc(N)c(C#N)c45)ncc23)[C@H]1COC (mixture of isomers) [Compound 29, 4-(4-((rac-(2S,3R)-1-acryloyl-2-(methoxymethyl)pyrrolidin-3-yl)(methyl)amino)-8-chloro-2-(((2R,7aS)-2-fluorotetrahydro-1H-pyrrolizin-7a(5H)-yl)methoxy)pyrido[4,3-d]pyrimidin-7-yl)-2-amino-7-fluorobenzo[b]thiophene-3-carbonitrile] | ≤ 500 | A (percent of modification ≥70%) | A (percent of modification ≥70%) | A (percent of modification ≥70%) | ≤ 100
